Experimental data: publication PMC9772450, “Gel-forming antagonist provides a lasting effect on CGRP-induced vasodilation” (Frontiers in Pharmacology, 2022)
Read-outs that look alike come from different tables or passages of the source.

Experiments:
[1] = test system: capsaicin-induced dermal blood flow; details: ref Sinclair et al., 2010; cited from earlier work
Description: It is known that anti-CGRP gepants could occupy a binding site close to the interface of the N-terminal domains of CLR and RAMP1, and act by allosteric regulation ([Miller et al., 2010]). Although the gepants compounds have low IC50 values in receptor activation assays in vitro, it is well documented that gepants need high concentrations to bloc ...

[2] = Passage of peptide molecules through Centricon filters; format: physicochemical; details: Centricon 30,000 MW cutoff, ADM2 EIA
Description: To evaluate whether gel-formation reduces the movement of peptide molecules in solution, we used the Centricon® filters (Millipore) to separate samples and the carriers based on their molecular mass. The sample is monomeric peptides, and the carrier is the self-assembled gel. One milligram aliquots of the peptides were first dissolved as 0.1% solution in 5% glucose, 0.1% solution in saline, 5% solution in 5% glucose, 10% solution in 5% glucose, and 20% solution in 5% glucose. Ten minutes later, the 5%, 10%, and 20% solutions were diluted to the 0.1% level. Aliquots of these solutions were sampled and dispensed into separate Centricon columns (30,000 MW cutoff), and the monomeric peptide and gel molecules were separated by centrifugation for 15 min (2000 x g). The level of peptide in the elutes was determined by specific EIAs (Phoenix Pharmaceuticals Inc.).

[3] = test system: CGRP-induced vasodilation; test: Dermal blood flow and vasodilation in rat hindlimbs, laser Doppler imaging; format: in vivo, Sprague-Dawley rats; details: rat hindlimb, ADE651 8 mg in 8% solution s.c. at 0 h
Experimental: Adult Sprague Dawley male rats (body weight 150–200 g) were randomly divided into treatment groups. Animals were individually housed during the experiment. After acclimation, rats were anesthetized and stabilized under 2.5% isoflurane, and were placed on a heating pad. Testing articles were prepared just before the experiment and individually administered subcutaneously into the hindlimbs. Human β-CGRP (LifeTein LLC, Hillsborough, NJ) was dissolved in a saline solution, and the antagonist solution was prepared in a 5% glucose solution. […] In this experiment, the antagonist gel solution was administered at 0 h as a liquid solution shortly after dissolution to prevent issues associated with the formation of semi-solid gel when the peptide is dissolved at high levels. […] The amount of blood flow was determined by laser Doppler imaging as described earlier ([Van der Schueren et al., 2007]; [Benschop et al., 2014]). The laser Doppler scan series of the hindlimbs began with two baseline scans and was followed by two scans each at select time points. Data are reported as percent change from the average baseline scans.

[4] = Release of ADE651 from gel solution in vivo (single-dose pharmacokinetics); parameters: species or system Sprague-Dawley rats; details: rat
Experimental: Single-dose pharmacokinetics of gel solution was investigated in male Sprague-Dawley rats. Rats received a peptide solution via the subcutaneous route. Blood samples were collected at pre-dose, 8 h, 1, 2, 4, and 8 days via a catheter that has been cannulated to the jugular vein (Charles River), and 0.5–1.0 ml of blood samples were collected at each time point. The animals were individually housed, plasma was obtained by centrifugation, and the peptide level in samples was determined by specific ADM2 EIAs (Catalogue no. EK-010–48, Phoenix Pharmaceuticals Inc.). It has a 0% cross-reactivity to ADM or CGRPs and has a sensitivity of 0.19 ng/ml. The Inter-assay variation was <15%.

[5] = Viscosity of peptide solutions, Rheosense viscometer; format: physicochemical; details: N = 5 per group, result in words
Experimental: (§1) To evaluate the ability of peptides to form gels in situ, we initially determined this tendency qualitatively based on visual examinations of peptide solutions using a tube-tapping method. In addition, we quantitatively determined the viscosity of select peptide solutions using a viscometer (Rheosense Inc; http://www.rheosense.com/products/viscometers) ([Yan and Pochan, 2010]). In the visual assay, aliquots of peptides were dissolved in an aqueous solution (i.e., de-ionized water, saline, or 5% glucose solution). The peptide that dissolved instantly and stayed as a clear solution without obvious macroscopic change in viscosity at 20 min after mixing was considered soluble. If macroscopic particles of peptides remained in the solution at 20 min after mixing, the peptide was considered insoluble.
In addition, we quantitatively determined the viscosity of ADE651 and control peptides using the Rheosense viscometer. The peptide solution was loaded onto a Rheosense viscometer chip, and the sample was injected at a constant flow rate through the flow channel with multiple pressure sensors that monitor the pressure drop from the inlet to the outlet. Because the pressure drop is correlated with the shear stress at the boundary wall, the instrument determines the rheological properties based on the standard principles of rheometry ([Yan and Pochan, 2010]).

[6] = Visual (tube-tapping) assay of gel-forming capability and solubility; format: physicochemical; parameters: key to Gel-forming ability: Y: can form a liquid gel; N: lacks the ability to efficiently form a liquid gel
Experimental: as §1

[7] = cited from earlier work
[8] = administered as a 25% gel depot; ref Oberg and Lamberts, 2016; cited from earlier work
Description: Our screening of long-acting antagonists has originally focused on lipidated peptides because lipidation is known to increase the half-lives of various peptides by enabling them to be bound by albumin and other serum proteins, therefore reducing elimination by kidneys and degradation by serum proteases ([Drucker et al., 2010]). […] This finding is consistent with earlier studies of benzoylated and lipidated CGRP8-37 analogs which ha ...

## O=C(N[C@@H]1CC[C@@H](c2cccc(F)c2F)CN(CC(F)(F)F)C1=O)N1CCC(n2c(=O)[nH]c3ncccc32)CC1 [telcagepant, reference compound]
[1]
  EC (90) to inhibit the capsaicin-induced increase in dermal blood flow: ~909 nM

## CCCCCCCCCCCCCCCC(=O)N[C@@H](CCCCN)C(=O)N[C@H](C(=O)N[C@@H](CCC(N)=O)C(=O)N[C@@H](CCCCN)C(=O)N[C@@H](CC(C)C)C(=O)N[C@@H](CO)C(=O)N[C@@H](C)C(=O)N1CCC[C@H]1C(=O)N[C@H](C(=O)N[C@@H](CC(=O)O)C(=O)N1CCC[C@H]1C(=O)N[C@@H](CO)C(=O)N[C@@H](CO)C(=O)N1CCC[C@H]1C(=O)N[C@@H](Cc1c[nH]cn1)C(=O)N[C@@H](CO)C(=O)N[C@@H](Cc1ccc(O)cc1)C(N)=O)C(C)C)C(C)C [ADE651]
[2]; 2000 x g 15 min, dissolved in 5% glucose, diluted to 0.1% after 10 min, triplicate samples
  Reduction of peptide level in the elutes from 5%, 10% and 20% solution groups compared to the 0.1% solution group: more than 98%
[2]; N = 3 per group, result in words
  Peptide level in the elute from the 0.1% saline group versus 0.1% solution in 5% glucose group: significantly lower
[3]; CGRP 1 mg/100 µL at 4 h, N = 3
  CGRP-induced increase in blood flow at the 5 h time point after ADE651 pretreatment: 6%
[3]; result in words
  Blood flow before the CGRP treatment (4 h time point) versus control animals: significantly lower
[4]; male, Sprague-Dawley, sc, subcutaneous, 200 µL of 16% solution (32 mg), plasma, ADM2 EIA, three animals, read-out: Time of peak circulating level after administration
  Tmax: 8 h
[4]; subcutaneous gel solution
  Sustained presence in the circulation after subcutaneous injection: > 1 week
[4]; subcutaneous, 16% solution (32 mg), plasma, ADM2 EIA, versus 0 h, result in words
  Circulating level at 8 days after injection: significantly elevated
[5]; compared with water, saline, 5% glucose, 0.5% and […] ADM
  Viscosity of 0.5% solution in 5% glucose: significantly higher than that of all other solutions evaluated
[6]; visual
  Appearance of solution in saline at 6–20%: cloudy
  Solubility in 5% glucose solution: soluble from 0.1% to 20%
  Solubility in saline: low solubility
[6]; visual inspection of 11% peptide solutions, tube-tapping, 20 min after mixing
  Gel-forming ability: Y
[6]; visual, 20 min after dissolution, vial tilted 90° and tapped
  Concentration at which the peptide solution forms a gel (becomes viscous): 6–20%

## adrenomedullin 2 [ADM2]
[7]; in vivo, sc
  Resident time after subcutaneous injection: < 1 h

## adrenomedullin [ADM, reference compound]
[7]; short half-life, ref Nagata et al., 2022
  Resident time after subcutaneous injection: < 1 h
[5]
  Viscosity of 0.5% and […] solutions in 5% glucose: like that of 5% glucose solution

## Lanreotide
[8]
  Period over which the gel releases the monomer: a month
